# Assay results published in patent publication US10913773B2, “Bicyclic peptidyl inhibitor of tumor necrosis factor-alpha” (Ohio State Innovation Foundation, priority 2016, dated 2021).
# Starred links: 1 amine or outer side, 2 acyl side, 3 side chain; linkers in the order of their positions; H or OH if unused. Positions of bridges follow the written chain, without caps; N, C: chain ends. Non-standard residues stand in square brackets, D forms with d. Residues, ends and D or L forms follow the SMILES beside them. *: point of attachment. Trimesoyl = O=C(c1cc(C(=O)[*:2])cc(C(=O)[*:3])c1)[*:1]; NH(1S,2S-2-CONH2-cPent) = NC(=O)[C@H]1CCC[C@@H]1N*; β3hV = CC(C)[C@H](N)CC(=O)O; 3Abz = Nc1cccc(C(=O)O)c1; Nle = CCCC[C@H](N)C(=O)O; Dap = NC[C@H](N)C(=O)O; βAla = NCCC(=O)O
# Target: T1, TNFα-TNFR1 interaction (Homo sapiens, UniProt P01375)
# T1 construct: made in house; host or cells: Escherichia coli (TNFα)
# Assay: ELISA inhibition of TNFα-TNFR1 interaction (immobilized biotinylated TNFα, TNFR1-HRP)
# Format: binding
# Settings: Table 5; peptides without Lys(FITC) label
# Protocol: Inhibition of TNFα-TNRF1 interaction by ELISA was carried out as previously described (Lian, W.; et al., supra).
# Because of its high-throughput capability, FA analysis had been used to generate all of the SAR data described above. […] To confirm the SAR data obtained by FA analysis, some of the compounds in Table 5 (as well as new compounds) were resynthesized without the Lys(FITC) label and employed a more sensitive ELISA-based assay to determine the IC50 values for inhibition of the TNFα-TNFR1 interaction. Briefly, biotinylated TNFα was immobilized onto a NeutrAvidin-coated surface. TNFR1 conjugated with horseradish peroxidase (HRP) (0.5 nM) was added along with different concentrations of a peptide inhibitor. After washing, the amount of bound TNFR1-HRP was quantitated by ELISA. […] In agreement with the FA results, either extension at the C-terminus of β-Ala with another amino acid (C1-67 to C1-70) or side-chain modification of β-Ala (C1-71 to C1-73) decreased TNFα binding.
row,Structure (SMILES),IC50
1,CCCC[C@@H]1NC(=O)c2cc3cc(c2)C(=O)NC[C@@H](C(=O)NCCC(=O)N[C@H](Cc2ccccc2)C(N)=O)NC(=O)[C@H](Cc2c[nH]cn2)NC(=O)[C@@H](CCCCN)NC(=O)CNC(=O)[C@@H](Cc2c[nH]cn2)NC(=O)[C@H](Cc2c[nH]c4ccccc24)NC(=O)[C@H](CCCCNC3=O)NC(=O)[C@@H](CO)NC(=O)[C@H](Cc2ccc(O)cc2)NC1=O [Compound C1-70] ([Nle]Y[dS]KW[dH]G[dK]H[Dap][βAla][dF]-NH2; linker N-4-10 via Trimesoyl),> 10000 nM
2,CCCC[C@@H]1NC(=O)c2cc3cc(c2)C(=O)NC[C@@H](C(=O)Nc2cccc(C(N)=O)c2)NC(=O)[C@H](Cc2c[nH]cn2)NC(=O)[C@@H](CCCCN)NC(=O)CNC(=O)[C@@H](Cc2c[nH]cn2)NC(=O)[C@H](Cc2c[nH]c4ccccc24)NC(=O)[C@H](CCCCNC3=O)NC(=O)[C@@H](CO)NC(=O)[C@H](Cc2ccc(O)cc2)NC1=O [Compound C1-73] ([Nle]Y[dS]KW[dH]G[dK]H[Dap][3Abz]-NH2; linker N-4-10 via Trimesoyl),1700 ± 700 nM
3,"CCCC[C@@H]1NC(=O)c2cc3cc(c2)C(=O)NC[C@@H](C(=O)N[C@H]2CCC[C@@H]2C(N)=O)NC(=O)[C@H](Cc2c[nH]cn2)NC(=O)[C@@H](CCCCN)NC(=O)CNC(=O)[C@@H](Cc2c[nH]cn2)NC(=O)[C@H](Cc2c[nH]c4ccccc24)NC(=O)[C@H](CCCCNC3=O)NC(=O)[C@@H](CO)NC(=O)[C@H](Cc2ccc(O)cc2)NC1=O [Compound C1-72] ([Nle]Y[dS]KW[dH]G[dK]H[Dap]-{NH(1S,2S-2-CONH2-cPent)}; linker N-4-10 via Trimesoyl)",110 ± 30 nM
4,CCCC[C@@H]1NC(=O)c2cc3cc(c2)C(=O)NC[C@@H](C(=O)NCCC(=O)NCCC(N)=O)NC(=O)[C@H](Cc2c[nH]cn2)NC(=O)[C@@H](CCCCN)NC(=O)CNC(=O)[C@@H](Cc2c[nH]cn2)NC(=O)[C@H](Cc2c[nH]c4ccccc24)NC(=O)[C@H](CCCCNC3=O)NC(=O)[C@@H](CO)NC(=O)[C@H](Cc2ccc(O)cc2)NC1=O [Compound C1-67] ([Nle]Y[dS]KW[dH]G[dK]H[Dap][βAla][βAla]-NH2; linker N-4-10 via Trimesoyl),1500 ± 900 nM
5,CCCC[C@@H]1NC(=O)c2cc3cc(c2)C(=O)NC[C@@H](C(=O)N[C@H](CC(N)=O)C(C)C)NC(=O)[C@H](Cc2c[nH]cn2)NC(=O)[C@@H](CCCCN)NC(=O)CNC(=O)[C@@H](Cc2c[nH]cn2)NC(=O)[C@H](Cc2c[nH]c4ccccc24)NC(=O)[C@H](CCCCNC3=O)NC(=O)[C@@H](CO)NC(=O)[C@H](Cc2ccc(O)cc2)NC1=O [Compound C1-71] ([Nle]Y[dS]KW[dH]G[dK]H[Dap][β3hV]-NH2; linker N-4-10 via Trimesoyl),2400 ± 1300 nM
6,CCCC[C@@H]1NC(=O)c2cc3cc(c2)C(=O)NC[C@@H](C(=O)NCCC(=O)N[C@@H](Cc2ccccc2)C(N)=O)NC(=O)[C@H](Cc2c[nH]cn2)NC(=O)[C@@H](CCCCN)NC(=O)CNC(=O)[C@@H](Cc2c[nH]cn2)NC(=O)[C@H](Cc2c[nH]c4ccccc24)NC(=O)[C@H](CCCCNC3=O)NC(=O)[C@@H](CO)NC(=O)[C@H](Cc2ccc(O)cc2)NC1=O [Compound C1-69] ([Nle]Y[dS]KW[dH]G[dK]H[Dap][βAla]F-NH2; linker N-4-10 via Trimesoyl),1300 ± 1100 nM

# Same assay, conditions: inhibition of TNFα-TNFR1 interaction, unlabeled peptides
row,Structure (SMILES),IC50
1,CC(=O)C[C@H](CCc1ccccc1)NC(=O)[C@@H](CC(N)=O)NC(=O)C(N)Cc1ccccc1F (stereo partly shown) [Compound C1-74-4],30 nM
2,CC(=O)[C@@H](Cc1ccc(O)cc1)NC(=O)[C@@H](CC(=O)O)NC(=O)C(N)CC(=O)O (stereo partly shown) [Compound C1-74-5],1350 ± 490 nM
3,CCCC[C@@H]1NC(=O)c2cc3cc(c2)C(=O)NC[C@@H](C(=O)NCCC(N)=O)NC(=O)[C@H](Cc2c[nH]cn2)NC(=O)[C@@H](CCCCN)NC(=O)CNC(=O)[C@@H](Cc2c[nH]cn2)NC(=O)[C@H](Cc2c[nH]c4ccccc24)NC(=O)[C@H](CCCCNC3=O)NC(=O)[C@@H](CO)NC(=O)[C@H](Cc2ccc(O)cc2)NC1=O [Compound C1-66] ([Nle]Y[dS]KW[dH]G[dK]H[Dap][βAla]-NH2; linker N-4-10 via Trimesoyl),85 nM

# Same assay, conditions: relative to C1-74
row,Structure (SMILES),Improvement of IC50 over C1-74 (fold)
1,CC(=O)C[C@H](CCc1ccccc1)NC(=O)[C@@H](CC(N)=O)NC(=O)C(N)Cc1ccccc1F (stereo partly shown) [Compound C1-74-4],~2 fold
